# Read-outs that look alike come from different tables or passages of the source.
# Tests used:
# [1] = isomolar concentrations; cited from earlier work
# CCK secretion = settings: humans, cited from earlier work
# [2] = Appetite perceptions (VAS scores) during and after 90 min intraduodenal infusion; format: in vivo, human
# Experimental: (§1) Each subject was studied on three occasions, separated by 3-10 days, to evaluate, in a double-blind, randomized fashion, the effects of intraduodenal infusions of 1) C12, 2) C10, or 3) control solution for 90 min on appetite perceptions, energy intake, APD pressures, and plasma CCK and GLP-1 concentrations.
# (§2) Once the catheter was positioned correctly, fasting motility was monitored until the occurrence of phase III of the interdigestive migrating motor complex (MMC). Immediately after the cessation of phase III activity [at time t=−15 min], a baseline venous blood sample was taken, and a visual analog scale questionnaire (VAS) (see Measurements), assessing appetite-related sensations, was administered. At t=0 min (i.e., during phase I of the MMC), the duodenal infusion of 1) C12, 2) C10, or 3) control solution was commenced and continued for 90 min. APD pressures were monitored throughout the infusion period; blood samples were taken, and the VAS administered every 15 min from t=0 min until t=90 min. At t=90 min, the infusion was terminated, and the subject was immediately extubated and offered a cold buffet-style meal, the composition of which is provided in Table 1. The amount of food offered was in excess of what the subject was expected to consume. The subject was given 30 min (i.e., t=90 min to t=120 min) to consume the meal and instructed to eat until comfortably full. After ingestion of the meal, the subject was monitored for a further 30 min, a further VAS was completed, and blood samples were taken at t=120 and 150 min. The intravenous cannula was then removed, and the subject was allowed to leave the laboratory.
# Appetite sensations and energy intake. Subjective sensations of appetite, including hunger, fullness, desire to eat, prospective consumption (“how much food do you think you could eat if you were given a meal now?”), were assessed using validated VASs (Sensations of nausea and bloating were also assessed. Each VAS evaluated a sensation on a 100-mm horizontal line, where 0 represented “sensation is not felt at all” and 100 represented “sensation is felt the greatest.” Subjects were asked to place a vertical stroke on the 100-mm line in relation to what they were feeling at that particular point in time.
# Baseline (“0”) values were calculated as the mean of values obtained at t=−15 and 0 min for VAS scores and plasma hormone concentrations and between t=−15 to 0 min for basal pyloric pressures, number, and amplitude of IPPWs, antral and duodenal PWs, and total number of duodenal PWSs. Basal pyloric pressures and the number and amplitude of IPPWs were expressed as means over 15-min segments during the 90-min infusion period. Numbers and amplitudes of antral and duodenal PWs were expressed as total number and mean values, respectively, for the 90-min infusion period. Duodenal PWSs were expressed as the total number of waves travelling over two, three, four, five, six, and seven channels during the 90-min infusion period. All data, except for plasma CCK and GLP-1 concentrations, were expressed as changes from baseline.
# VAS scores, basal pyloric pressures, number and amplitude of IPPWs, and plasma hormone concentrations were analyzed by repeated-measures mixed model analysis of covariance (ANCOVA), with baseline as the covariate and time (0-90 min, at 15-min intervals) and treatment as within-subject factors. One-way ANOVA was used to assess the effect of treatment on energy intake, time taken to complete eating, total numbers and mean amplitudes of antral and duodenal PWs, and total number of duodenal PWSs. A logarithmic transformation was applied to nausea scores, antral amplitudes, and duodenal PWSs travelling 7.5 and 9 cm to better address the underlying assumptions of the models used (as these variables lacked normal distribution). If significance or near significance ([…]) was found, post hoc comparisons of least-squares means using Student's t-tests were performed. […]
# plasma CCK = assay: Plasma CCK concentrations by radioimmunoassay; format: in vivo, human
# Experimental: as §2
# (§3) Venous blood samples (10 ml) were collected in ice-chilled EDTA-treated tubes containing 400 kIU aprotinin (Trasylol, Bayer Australia) per millilitre of blood. Plasma was separated by centrifugation (3,200 rpm, 15 min, 4° C.) within 30 min of collection and stored at −70° C. until assayed.
# Plasma CCK concentrations (in pmol/l) were determined after ethanol extraction using a previously described radioimmunoassay (3). A commercially available antibody (C258, Lot 105H4852, Sigma Chemical) raised in rabbits against the synthetic sulfated CCK-8 was employed. […] The intra-assay coefficient of variation (CV) was 9% and the interassay CV was 27%, with a sensitivity of 2.5 pmol/l. The sensitivity of the assay relates to its reliable detection limit.
# [3] = Antropyloroduodenal (APD) pressures by manometry during intraduodenal infusion; format: in vivo, human
# Text: Subjects attended the laboratory at 0830 after fasting from 2200 the previous night from both solids and liquids. They were intubated with a 17-channel manometric catheter (Dentsleeve; Adelaide, South Australia, Australia) that was inserted through an anesthetized nostril and allowed to pass through the stomach and into the duodenum by peristalsis. The manometric catheter, which consisted of 16 sideholes spaced at 1.5-cm intervals, measures pressures in the antrum, pylorus, and duodenum. Six side holes (channels 1-6) were positioned in the antrum, a 4.5-cm sleeve sensor (channel 7), with two channels present on the back of the sleeve (channels 8 and 9), designed to measure pressure waves occurring over the entire pyloric region, were positioned across the pylorus, and seven channels were positioned in the duodenum (channels 10-16). An additional channel, used for intraduodenal infusions, was positioned 11.75 cm distal to the end of the sleeve sensor. The correct positioning of the catheter, so the sleeve sensor straddled the pylorus, was maintained by continuous measurement of the transmucosal potential difference (TMPD) between the most distal antral channel (channel 6; approximately −40 mV) and the most proximal duodenal channel (channel 10; ˜0 mV). For this purpose, an intravenous cannula filled with sterile saline was placed subcutaneously in the left forearm and used as a reference electrode. All manometric channels were perfused with degassed, distilled water except for the two TMPD channels, which were perfused with degassed 0.9% saline at 0.15 ml/min. An intravenous cannula was also placed into a right forearm vein for blood sampling to measure plasma CCK and GLP-1 concentrations.
# as §2
# APD pressures. Manometric pressures were digitized, recorded on a computer-based system (PowerMac 7100/75, Apple Computers; Cupertino, Calif.) running commercially available software (HAD, Associate Prof. G S Hebbard, Melbourne, Australia) written in LabView 3.1.1 (National Instruments), and stored for subsequent analysis. APD pressures were analysed for 1) number and amplitude of isolated pyloric pressure waves (IPPWs) and pressure waves (PWs) in the antrum and duodenum and 2) number and length of PW sequences (PWSs) in the duodenum using custom-written software (Gastrointestinal Motility Unit; Utrecht, The Netherlands) modified to our requirements. […]
# [4] = Energy intake from the buffet meal after intraduodenal infusion; format: in vivo, human
# Experimental: as §1, §2
# Energy intake from the buffet meal [energy consumption (in kJ) and macronutrient distribution (in % and g energy)] was analyzed using commercially available software (Food works 3.0, Xyris Software; Highgate Hill, Queensland, Australia). The time taken to finish the meal (in min) was also evaluated.
# plasma GLP-1 = assay: Plasma GLP-1 concentrations by radioimmunoassay; format: in vivo, human
# Experimental: as §2, §3
# Plasma GLP-1 concentrations (in pmol/l) were measured by radioimmunoassay using an adaptation of a previously published method (4) Antibody, supplied by Prof. […] It is likely that this antibody also reacts with the degraded form of GLP-1(9-36) amide. Intra-assay CV was 17% and interassay CV was 18%, with a sensitivity of 1.5 pmol/l.
# [5] = during 90 min intraduodenal infusion, 0.375 kcal/min, compared with control
# [6] = 90 min infusion, compared with control
# [7] = buffet meal, compared with control
smiles,measurement,setting,value
"CCCCCCCCCC(=O)O [C10, decanoic (C10:0) acid, reference compound]",cytotoxicity relative to C12,[1],similar
same,stimulation of CCK secretion,CCK secretion; gastric infusion,neither C11 nor C10
same,fullness (VAS) after meal ingestion,"[2]; at 120 and 150 min, after the buffet meal",no difference between C10 and control
same,scores for bloating (VAS),"[2]; during 90 min intraduodenal infusion, 0.375 kcal/min",increased scores for bloating compared with control
same,nausea scores (VAS),[2]; [5],no difference in nausea scores between C10 and control
same,scores for hunger (VAS),[2]; [5],no differences were found between C10 and control
same,scores for prospective consumption (VAS),[2]; [5],no differences were found between C10 and control
same,scores for desire to eat (VAS),"[2]; during 90 min intraduodenal infusion, 0.375 kcal/min, healthy males, compared with control",no differences were found between C10 and control
same,plasma CCK concentrations,"plasma CCK; during 90 min infusion, compared with control",increased plasma CCK concentrations
same,time of peak plasma CCK,plasma CCK; from start of infusion,15 min
same,basal pyloric pressure (tone),[3]; [6],significant difference between C10 and control
same,number of antral PWs,[3]; [6],no difference between C10 and control
same,number of duodenal PWs,[3]; [6],increased the number of duodenal PWs compared with control
same,number of IPPWs compared with control,"[3]; C12: 0-15, 15-30 and 30-45 min, C10: 0-15 min",increased the number of IPPWs compared with control between 0 and 15 min
same,number of duodenal PWSs travelling over six channels (7.5 to <9 cm),[3]; compared with control,decreased the number of waves that travelled over six channels compared with control
same,number of duodenal PWSs travelling over three channels (3 to <4.5 cm),[3]; compared with control,no difference between C12 or C10 and control
same,number of duodenal PWSs travelling over two channels (1.5 to <3 cm),[3]; compared with control,increased the number of waves compared with control
same,number of waves that travelled over nine channels,[3]; compared with control,no difference between C10 and control
same,amplitude of IPPWs compared with control,[3]; throughout the infusion period,no significant differences between C10 and control
same,energy intake at buffet meal,"[4]; after 90 min intraduodenal infusion 0.375 kcal/min, compared with control",no difference between C10 and control infusion
same,amount of energy (in g) ingested from carbohydrate,[4]; [7],no difference between C10 and control
same,amount of energy (in g) ingested from fat,[4]; [7],no difference between C10 and control
same,amount of energy (in g) ingested from protein,[4]; [7],no difference between C10 and control
same,time at which eating from the buffet meal was completed,"[4]; mean±SE, not statistically significant",20.6 ± 2.6 min
same,plasma GLP-1 concentrations compared with control,"plasma GLP-1; during infusion, C12 effect from 30 to 90 min",no difference between C10 and control
same,plasma GLP-1 concentrations after meal ingestion,"plasma GLP-1; t=120 and 150 min, compared with control",no difference between C10 and control
CCCCCCCCCCC(=O)O [C11],stimulation of CCK secretion,CCK secretion; gastric infusion,neither C11 nor C10
CCCCCCCCCCCCCCCCCC(=O)O [C18],stimulation of CCK secretion,CCK secretion; duodenal infusion,reported to stimulate CCK secretion

# Source: patent US20060167094A1, “Satiety agent” (priority 2005, published 2006)
